According to PubChem BioAssay AID1745844 (Carcinogenic Potency Database (CPDB), 2022):

Test system: rodent lifetime carcinogenesis bioassay, tumor incidence TD50
Experiment: chronic cancer bioassays in animals – CPDB, compiled studies (AID 1745844)
Conditions: rat, strain Fischer 344

Cc1ccc(S(=O)(=O)Oc2ccc(N=Nc3ccc(-c4ccc(N=Nc5c(O)ccc6cc(S(=O)(=O)O)cc(S(=O)(=O)O)c56)c(C)c4)cc3C)cc2)cc1
TD50 (females, in drinking water, site: Zymbal's gland, lesion: adenoma + carcinoma, dosed 98 weeks, study length 104 weeks): 15.6 mg/kg/day
TD50 (females, in drinking water, site: Zymbal's gland, lesion: adenoma, dosed 98 weeks, study length 104 weeks): 65.4 mg/kg/day
TD50 (females, in drinking water, site: Zymbal's gland, lesion: carcinoma, dosed 98 weeks, study length 104 weeks): 18 mg/kg/day
TD50 (females, in drinking water, site: adrenal medulla, lesion: pheochromocytoma, benign, dosed 98 weeks, study length 104 weeks): 38.3 mg/kg/day
TD50 (females, in drinking water, site: adrenal medulla, lesion: pheochromocytoma, malignant + pheochromocytoma, benign, dosed 98 weeks, study length 104 weeks): 31.6 mg/kg/day
TD50 (females, in drinking water, site: any site (literature study), lesion: several types, types named in the paper, dosed 98 weeks, study length 104 weeks): 2.31 mg/kg/day
TD50 (females, in drinking water, site: clitoral gland + colon + duodenum + jejunum + liver + lung + pharynx + rectum + skin + tongue + Zymbal's gland, lesion: adenoma + adenoma, bilateral + carcinoma + carcinoma, bilateral + adenomatous polyp + mucinous cystadenocarcinoma + hepatocellular c, dosed 98 weeks, study length 104 weeks): 3.11 mg/kg/day
TD50 (females, in drinking water, site: clitoral gland, lesion: adenoma + adenoma, bilateral + carcinoma + carcinoma, bilateral, dosed 98 weeks, study length 104 weeks): 4.75 mg/kg/day
TD50 (females, in drinking water, site: clitoral gland, lesion: adenoma + adenoma, bilateral, dosed 98 weeks, study length 104 weeks): 11.9 mg/kg/day
TD50 (females, in drinking water, site: clitoral gland, lesion: carcinoma + carcinoma, bilateral, dosed 98 weeks, study length 104 weeks): 8.97 mg/kg/day
TD50 (females, in drinking water, site: colon + rectum, lesion: adenomatous polyp + mucinous cystadenocarcinoma, dosed 98 weeks, study length 104 weeks): 136 mg/kg/day
TD50 (females, in drinking water, site: duodenum + jejunum, lesion: adenomatous polyp + mucinous cystadenocarcinoma, dosed 98 weeks, study length 104 weeks): 213 mg/kg/day
TD50 (females, in drinking water, site: liver, lesion: hepatocellular adenoma + hepatocellular carcinoma + neoplastic nodule, dosed 98 weeks, study length 104 weeks): 14.2 mg/kg/day
TD50 (females, in drinking water, site: liver, lesion: hepatocellular carcinoma + neoplastic nodule, dosed 98 weeks, study length 104 weeks): 14.2 mg/kg/day
TD50 (females, in drinking water, site: liver, lesion: hepatocellular carcinoma, dosed 98 weeks, study length 104 weeks): 42.5 mg/kg/day
TD50 (females, in drinking water, site: liver, lesion: neoplastic nodule, dosed 98 weeks, study length 104 weeks): 18 mg/kg/day
TD50 (females, in drinking water, site: lung, lesion: alveolar/bronchiolar adenoma + alveolar/bronchiolar carcinoma, dosed 98 weeks, study length 104 weeks): 23.6 mg/kg/day
TD50 (females, in drinking water, site: lung, lesion: alveolar/bronchiolar adenoma, dosed 98 weeks, study length 104 weeks): 26.3 mg/kg/day
TD50 (females, in drinking water, site: mammary gland, lesion: adenocarcinoma, dosed 98 weeks, study length 104 weeks): 40.6 mg/kg/day
TD50 (females, in drinking water, site: mammary gland, lesion: adenoma, dosed 98 weeks, study length 104 weeks): 67 mg/kg/day
TD50 (females, in drinking water, site: mammary gland, lesion: fibroadenoma, dosed 98 weeks, study length 104 weeks): 11.4 mg/kg/day
TD50 (females, in drinking water, site: multiple organs, lesion: leukemia + mononuclear-cell leukemia, dosed 98 weeks, study length 104 weeks): 9.44 mg/kg/day
TD50 (females, in drinking water, site: pharynx + tongue, lesion: squamous-cell carcinoma + squamous-cell papilloma, dosed 98 weeks, study length 104 weeks): 31.4 mg/kg/day
TD50 (females, in drinking water, site: pharynx + tongue, lesion: squamous-cell carcinoma, dosed 98 weeks, study length 104 weeks): 227 mg/kg/day
TD50 (females, in drinking water, site: pharynx + tongue, lesion: squamous-cell papilloma, dosed 98 weeks, study length 104 weeks): 36.5 mg/kg/day
TD50 (females, in drinking water, site: pharynx, lesion: squamous-cell papilloma, dosed 98 weeks, study length 104 weeks): 72.4 mg/kg/day
TD50 (females, in drinking water, site: pituitary gland, lesion: pars distalis adenoma, dosed 98 weeks, study length 104 weeks): 11.1 mg/kg/day
TD50 (females, in drinking water, site: skin, lesion: basal-cell adenoma + basal-cell carcinoma, dosed 98 weeks, study length 104 weeks): 21.9 mg/kg/day
TD50 (females, in drinking water, site: skin, lesion: basal-cell adenoma, dosed 98 weeks, study length 104 weeks): 28.2 mg/kg/day
TD50 (females, in drinking water, site: skin, lesion: squamous-cell carcinoma + squamous-cell papilloma, dosed 98 weeks, study length 104 weeks): 49.7 mg/kg/day
TD50 (females, in drinking water, site: skin, lesion: squamous-cell carcinoma, dosed 98 weeks, study length 104 weeks): 57.3 mg/kg/day
TD50 (females, in drinking water, site: subcutaneous tissue, lesion: fibrosarcoma + fibroma, dosed 98 weeks, study length 104 weeks): 78.2 mg/kg/day
TD50 (females, in drinking water, site: thyroid gland, lesion: c-cell adenoma, dosed 98 weeks, study length 104 weeks): 48.7 mg/kg/day
TD50 (females, in drinking water, site: thyroid gland, lesion: follicular-cell adenoma + follicular-cell carcinoma, dosed 98 weeks, study length 104 weeks): 28.8 mg/kg/day
TD50 (females, in drinking water, site: thyroid gland, lesion: follicular-cell adenoma, dosed 98 weeks, study length 104 weeks): 53.5 mg/kg/day
TD50 (females, in drinking water, site: thyroid gland, lesion: follicular-cell carcinoma, dosed 98 weeks, study length 104 weeks): 68.9 mg/kg/day
TD50 (females, in drinking water, site: tongue, lesion: squamous-cell carcinoma + squamous-cell papilloma, dosed 98 weeks, study length 104 weeks): 65.7 mg/kg/day
TD50 (females, in drinking water, site: tongue, lesion: squamous-cell papilloma, dosed 98 weeks, study length 104 weeks): 75 mg/kg/day
TD50 (females, in drinking water, site: uterus, lesion: endometrial stromal polyp + endometrial stromal sarcoma, dosed 98 weeks, study length 104 weeks): 16.4 mg/kg/day
TD50 (females, in drinking water, site: uterus, lesion: endometrial stromal polyp, dosed 98 weeks, study length 104 weeks): 20.1 mg/kg/day
TD50 (males, in drinking water, site: Zymbal's gland, lesion: adenoma + carcinoma, dosed 104 weeks, study length 104 weeks): 27 mg/kg/day
TD50 (males, in drinking water, site: Zymbal's gland, lesion: carcinoma, dosed 104 weeks, study length 104 weeks): 29.8 mg/kg/day
TD50 (males, in drinking water, site: adrenal medulla, lesion: pheochromocytoma benign, bilateral + pheochromocytoma, malignant + pheochromocytoma, benign, dosed 104 weeks, study length 104 weeks): 5.94 mg/kg/day
TD50 (males, in drinking water, site: adrenal medulla, lesion: pheochromocytoma, benign, dosed 104 weeks, study length 104 weeks): 6.69 mg/kg/day
TD50 (males, in drinking water, site: any site (literature study), lesion: several types, types named in the paper, dosed 104 weeks, study length 104 weeks): 3.23 mg/kg/day
TD50 (males, in drinking water, site: liver + skin + Zymbal's gland, lesion: hepatocellular carcinoma + neoplastic nodule + basal-cell adenoma + basal-cell carcinoma + keratoacanthoma + sebaceous gland carci, dosed 104 weeks, study length 104 weeks): 2.8 mg/kg/day
TD50 (males, in drinking water, site: liver, lesion: hepatocellular adenoma + hepatocellular carcinoma + neoplastic nodule, dosed 104 weeks, study length 104 weeks): 7.02 mg/kg/day
TD50 (males, in drinking water, site: liver, lesion: hepatocellular carcinoma + neoplastic nodule, dosed 104 weeks, study length 104 weeks): 7.02 mg/kg/day
TD50 (males, in drinking water, site: liver, lesion: hepatocellular carcinoma, dosed 104 weeks, study length 104 weeks): 20.2 mg/kg/day
TD50 (males, in drinking water, site: liver, lesion: neoplastic nodule, dosed 104 weeks, study length 104 weeks): 10.4 mg/kg/day
TD50 (males, in drinking water, site: lung, lesion: alveolar/bronchiolar adenoma + alveolar/bronchiolar carcinoma, dosed 104 weeks, study length 104 weeks): 47.2 mg/kg/day
TD50 (males, in drinking water, site: lung, lesion: alveolar/bronchiolar adenoma, dosed 104 weeks, study length 104 weeks): 39 mg/kg/day
TD50 (males, in drinking water, site: multiple organs, lesion: mononuclear-cell leukemia, dosed 104 weeks, study length 104 weeks): 12.3 mg/kg/day
TD50 (males, in drinking water, site: pharynx + tongue, lesion: squamous-cell papilloma, dosed 104 weeks, study length 104 weeks): 71 mg/kg/day
TD50 (males, in drinking water, site: skin, lesion: basal-cell adenoma + basal-cell carcinoma, dosed 104 weeks, study length 104 weeks): 3.3 mg/kg/day
TD50 (males, in drinking water, site: skin, lesion: basal-cell adenoma, dosed 104 weeks, study length 104 weeks): 3.58 mg/kg/day
TD50 (males, in drinking water, site: skin, lesion: basal-cell carcinoma, dosed 104 weeks, study length 104 weeks): 22.8 mg/kg/day
TD50 (males, in drinking water, site: skin, lesion: keratoacanthoma, dosed 104 weeks, study length 104 weeks): 20.4 mg/kg/day
TD50 (males, in drinking water, site: skin, lesion: sebaceous gland carcinoma + sebaceous adenoma, dosed 104 weeks, study length 104 weeks): 23.4 mg/kg/day
TD50 (males, in drinking water, site: skin, lesion: squamous-cell carcinoma + squamous-cell papilloma, dosed 104 weeks, study length 104 weeks): 12.7 mg/kg/day
TD50 (males, in drinking water, site: skin, lesion: squamous-cell carcinoma, dosed 104 weeks, study length 104 weeks): 16.2 mg/kg/day
TD50 (males, in drinking water, site: testis, lesion: interstitial-cell adenoma, bilateral + interstitial-cell adenoma, dosed 104 weeks, study length 104 weeks): 3.39 mg/kg/day

O=C1NC(O)CCN1[C@@H]1O[C@H](CO)[C@@H](O)[C@H]1O (stereo partly drawn)
TD50 (males, i.p., site: any site (literature study), lesion: one or several types, types not named, dosed 52 weeks, study length 52 weeks): 15.7 mg/kg/day
